The source made the active and inactive calls. The rule behind the calls is not given here.

The values below come from ChEMBL document CHEMBL5500331, “Discovery of novel peptide-dehydroepiandrosterone hybrids inducing endoplasmic reticulum stress with effective in vitro and in vivo anti-melanoma activities” (Eur J Med Chem, 2024).

In data set [1] the test system is B16. As to the kind of experiment: Antiproliferative activity against mouse B16 cells measured after 48 hrs by MTT assay. It counts as functional, cell-based. The conditions noted are these: B16, 48 h. Background: Tetrazolium dyes change colour on reduction, which living cells bring about.
Data set [2] deals with B16. As to the kind of experiment: Effect on Bcl-2 expression in mouse B16 cells at 9.70 uM measured after 48 hrs by Western blot analysis. It is filed as functional, cell-based. The conditions noted are these: dose 9.7 µM. Background: In western blotting, separated proteins are transferred to a membrane and probed.
For data set [3], the system named is B16. As to the kind of experiment: Upregulation of caspase 8 expression in mouse B16 cells at 9.70 uM measured after 48 hrs by Western blot analysis. It is filed as functional, cell-based. The conditions noted are these: dose 9.7 µM.
Data set [4] concerns B16. As to the kind of experiment: Upregulation of […] expression in mouse B16 cells at 9.70 uM measured after 48 hrs by Western blot analysis. It is filed as functional, cell-based. The settings on record: dose 9.7 µM.
For data set [5], the system named is B16. As to the kind of experiment: Upregulation of caspase 3 expression in mouse B16 cells at 9.70 uM measured after 48 hrs by Western blot analysis. It counts as functional, cell-based. The settings on record: dose 9.7 µM.
Data set [6] deals with DU-145. In words: Antiproliferative activity against human DU-145 cells at 25 uM measured after 48 hrs by MTT assay. It is filed as functional, cell-based.
Data set [7] deals with B16. As to the kind of experiment: Anti-melanoma activity against mouse B16 cells xenografted in Kunming mouse model assessed as reduction in tumor volume at 60 mg/kg, IG measured after 7 to 27 days. It counts as functional, organism-based. The settings on record: time 7-27 day.
Data set [8] deals with B16. As to the kind of experiment: Anti-melanoma activity against mouse B16 cells xenografted in Kunming mouse model assessed as decrease in bcl-2 level at 60 mg/kg, IG measured after 27 days by IHC staining based analysis. It counts as functional, organism-based. The conditions noted are these: time 27.0 day.
Data set [9] deals with B16. In words: Induction of endoplasmic reticulum (ER) stress in mouse B16 cells assessed as effect on CHOP expression at 9.70 uM measured after 48 hrs by Western blot analysis. It is filed as functional, cell-based. The conditions noted are these: dose 9.7 µM.
In data set [10] the test system is B16. As to the kind of experiment: Induction of endoplasmic reticulum (ER) stress in mouse B16 cells assessed as effect on GRP78 expression at 9.70 uM measured after 48 hrs by Western blot analysis. It is filed as functional, cell-based. The settings on record: dose 9.7 µM.
Data set [11] deals with B16. In words: Anti-melanoma activity against mouse B16 cells xenografted in Kunming mouse model assessed as increase in bax expression at 60 mg/kg, IG measured after 27 days by IHC staining based analysis. It counts as functional, organism-based. The settings on record: time 27.0 day.
Data set [12] concerns B16. As to the kind of experiment: Anti-melanoma activity against mouse B16 cells xenografted in Kunming mouse model assessed as increase in caspase 8 expression at 60 mg/kg, IG measured after 27 days by IHC staining based analysis. It is filed as functional, organism-based. The conditions noted are these: time 27.0 day.
The test system of data set [13] is B16. In words: Downregulation of Bcl-2 expression in mouse B16 cells at 9.70 uM measured after 48 hrs by Western blot analysis. It counts as functional, cell-based. The settings on record: dose 9.7 µM.
A short description of data set [14]: Inhibition of cell migration in mouse B16 cells at 9.70 uM measured after 24 hrs by crystal violet staining based analysis relative to control. It is filed as functional.
Data set [15] relates to B16. In words: Anti-melanoma activity against mouse B16 cells xenografted in Kunming mouse model assessed as suppression of tumor weight at 60 mg/kg, IG measured every two days for 27 days (reference value: 10.61+/-1.05g). It counts as functional. The conditions noted are these: time 27 day.
Data set [16] can be described thus: Induction of apoptosis in mouse B16 cells assessed as necrosis at 19.4 uM measured after 48 hrs by annexin-V/PI double staining based flow cytometry analysis relative to control. It is filed as functional.
The subject of data set [17] is B16. In words: Anti-melanoma activity against mouse B16 cells xenografted in Kunming mouse model assessed as increase in caspase 3 expression at 60 mg/kg, IG measured after 27 days by IHC staining based analysis. It counts as functional, organism-based. The settings on record: time 27.0 day.
Data set [18] deals with B16. In words: Anti-melanoma activity against mouse B16 cells xenografted in Kunming mouse model assessed as reduction in tumor volume at 60 mg/kg, IG measured after 5 days. It counts as functional, organism-based. The settings on record: time 5.0 day.
Data set [19] can be described thus: Induction of apoptosis in mouse B16 cells at 19.4 uM measured after 48 hrs by annexin-V/PI double staining based flow cytometry analysis relative to control. It counts as functional. Background: In flow cytometry, cells or beads pass a laser one at a time.
Data set [20] deals with PC-3. In words: Antiproliferative activity against human PC-3 cells at 25 uM measured after 48 hrs by MTT assay. It is filed as functional, cell-based.
In data set [21] the test system is B16. As to the kind of experiment: Induction of endoplasmic reticulum (ER) stress in mouse B16 cells assessed as decrease in alix expression at 9.70 uM measured after 48 hrs by Western blot analysis. The conditions noted are these: dose 9.7 µM. It is filed as functional, cell-based.
For data set [22], the system named is B16. In words: Anti-melanoma activity against mouse B16 cells xenografted in Kunming mouse model assessed as reduction in tumor volume at 60 mg/kg, IG measured upto 27 days. It is filed as functional, organism-based. The conditions noted are these: time <= 27.0 day.
Data set [23] can be described thus: Drug metabolism in mouse plasma assessed as abiraterone Cmax at 20 mg/kg, IG. It is filed as ADME, organism-based. The settings on record: in vivo, po.
Data set [24] can be described thus: Inhibition of cell migration in mouse B16 cells at 9.70 uM measured after 48 hrs by scratch-wound healing assay relative to control. It counts as functional.
A short description of data set [25]: Inhibition of cell invasion in mouse B16 cells at 9.70 uM measured after 24 hrs by crystal violet staining based analysis relative to control. It counts as functional.
Data set [26] can be described thus: Drug metabolism in mouse plasma assessed as abiraterone Tmax at 20 mg/kg, IG. It counts as ADME, organism-based. The settings on record: in vivo, po.
The nature of data set [27]: Toxicity in Kunming mouse assessed as effect on body weight at 60 mg/kg, IG measured after 21 days. It is filed as organism-based. The conditions noted are these: in vivo, po, 504 h, time 21 day.
The test system of data set [28] is B16. In words: Anti-melanoma activity against mouse B16 cells xenografted in Kunming mouse model assessed as inhibition of tumor weight at 60 mg/kg, IG measured every two days for 27 days relative to control. It counts as functional. On the set-up: scale not given: the % may be the effect or the level left. The conditions noted are these: time 27 day.
Data set [29] in a line: Antiproliferative activity against human Prostate tumor cell line at 25 uM measured after 48 hrs by MTT assay relative to control. It counts as functional.
Data set [30] has as its system BGC-823. As to the kind of experiment: Antiproliferative activity against human BGC-823 cells at 25 uM measured after 48 hrs by MTT assay relative to control. It counts as functional.
For data set [31], the system named is HCT-116. In words: Antiproliferative activity against human HCT-116 cells at 25 uM measured after 48 hrs by MTT assay relative to control. It counts as functional.
Data set [32] deals with B16. As to the kind of experiment: Antiproliferative activity against mouse B16 cells at 25 uM measured after 48 hrs by MTT assay relative to control. It counts as functional.

One may read the IC50 as the point on the concentration scale where inhibition reaches its midpoint. `C[C@]12CC[C@H](OC(=O)[C@@H]3CCCN3C(=O)CN)CC1=CC[C@@H]1[C@@H]2CC[C@]2(C)C(c3cccnc3)=CC[C@@H]12` registered an IC50 in data set [1] of over 1000 µM.

In turn, `C[C@]12CC[C@H](OC(=O)CN)CC1=CC[C@@H]1[C@@H]2CC[C@]2(C)C(O)=CC[C@@H]12` yielded an IC50 in data set [1] of 71.6 µM.

The compound `CC(C)C[C@H](NC(=O)CN)C(=O)O[C@H]1CC[C@@]2(C)C(=CC[C@@H]3[C@@H]2CC[C@]2(C)C(c4cccnc4)=CC[C@@H]32)C1` came in with an IC50 in [1] of 30.5 µM. In data set [2], the result was inactive. The outcome in [3], in data set [4] and in [5] was Active.

For the compound `CC(=O)O[C@H]1CC[C@@]2(C)C(=CC[C@@H]3[C@@H]2CC[C@]2(C)C(c4ccc(Cl)nc4)=CC[C@@H]32)C1`, the half-inhibitory concentration (IC50) in [1] is over 1000 µM.

Usually inhibition stands for the change of the read-out against control, counted positive when it falls. The term Cmax denotes the highest concentration seen after dosing. Broadly, the Tmax is the time at which the peak concentration occurs. `CC(=O)O[C@H]1CC[C@@]2(C)C(=CC[C@@H]3[C@@H]2CC[C@]2(C)C(c4cccnc4)=CC[C@@H]32)C1` [ABIRATERONE ACETATE]: the outcome in data set [6], in data set [8], in data set [11], in data set [3], in data set [12] and in [13] was Active. Besides, the result in data set [17], in [4], in [18], in data set [20] and in data set [21] was Active. Further, the outcome in data set [7], in [9], in [10], in [5] and in data set [22] was inactive. The same compound registered an IC50 in data set [1] of 28.7 µM. In addition, the inhibition at 9.7 µM is 51% in data set [14], 64% in data set [24] and 61% in data set [25]. The Activity was 2.5 g in [15]; 49.8% in data set [16]; 9% in data set [19]; “Toxic” in data set [27]; 76.42% in data set [28]. For the same compound, the Cmax in data set [23] was found to be 681 ng/mL. Further, the Tmax in data set [26] is 4 h.

For the compound `C[C@]12CC[C@H](O)CC1=CC[C@@H]1[C@@H]2CC[C@]2(C)C(c3cccnc3)=CC[C@@H]12` [ABIRATERONE], the result in data set [6], in data set [18] and in data set [20] was Active. Further, in [7], the outcome was inactive. The IC50 in [1] is 106 µM. The Activity is on record as 8.7 g in [15], 69.3% in [29], “Toxic” in [27] and 17.93% in [28].

The compound `CC(C)[C@H](NC(=O)CN)C(=O)O[C@H]1CC[C@@]2(C)C(=CC[C@@H]3[C@@H]2CC[C@]2(C)C(c4ccc(F)nc4)=CC[C@@H]32)C1` registered an IC50 in data set [1] of 3.16 µM.

As for `C[C@]12CC[C@H](O)CC1=CC[C@@H]1[C@@H]2CC[C@]2(C)C(c3ccc(F)nc3)=CC[C@@H]12`, it took 56.4 µM to reach half-maximal inhibition in data set [1] (IC50).

In turn, `C[C@]12CC[C@H](O)CC1=CC[C@@H]1[C@@H]2CC[C@]2(C)C(c3ccc(Cl)nc3)=CC[C@@H]12` registered a concentration for half-maximal inhibition (IC50) in data set [1] of 113 µM.

In [1], `CC(C)C[C@H](N)C(=O)O[C@H]1CC[C@@]2(C)C(=CC[C@@H]3[C@@H]2CC[C@]2(C)C(O)=CC[C@@H]32)C1` came in with a half-inhibitory concentration (IC50) of over 1000 µM.

With `CC(C)[C@H](N)C(=O)N[C@H](C(=O)O[C@H]1CC[C@@]2(C)C(=CC[C@@H]3[C@@H]2CC[C@]2(C)C(O)=CC[C@@H]32)C1)C(C)C`, in [1], the IC50 was determined as 23.6 µM.

For `CC(C)[C@H](N)C(=O)N[C@@H](C)C(=O)O[C@H]1CC[C@@]2(C)C(=CC[C@@H]3[C@@H]2CC[C@]2(C)C(O)=CC[C@@H]32)C1`, the figures for the Activity in data set [30], in data set [31] and in data set [32] were 81.6%, 66% and 83.7%, respectively.

The compound `CC(C)[C@H](NC(=O)CN)C(=O)O[C@H]1CC[C@@]2(C)C(=CC[C@@H]3[C@@H]2CC[C@]2(C)C(O)=CC[C@@H]32)C1` showed an IC50 in [1] of 16.5 µM.

Take `CC(C)[C@H](NC(=O)CN)C(=O)O[C@H]1CC[C@@]2(C)C(=CC[C@@H]3[C@@H]2CC[C@]2(C)C(c4cnccc4Cl)=CC[C@@H]32)C1`: inhibition in [1] was half-maximal at 3.78 µM (IC50).

`C[C@]12CC[C@H](OC(=O)CN)CC1=CC[C@@H]1[C@@H]2CC[C@]2(C)C(c3cccnc3)=CC[C@@H]12` gave an IC50 in data set [1] of 221 µM.

Regarding `COc1ccc(C2=CC[C@H]3[C@@H]4CC=C5C[C@@H](OC(C)=O)CC[C@]5(C)[C@H]4CC[C@]23C)cn1`, the IC50 in data set [1] is over 1000 µM.

Compound `C[C@]12CC[C@H](OC(=O)CNC(=O)CN)CC1=CC[C@@H]1[C@@H]2CC[C@]2(C)C(c3cccnc3)=CC[C@@H]12` returned a 50% inhibitory concentration (IC50) in [1] of 177 µM.

Regarding `CC(C)[C@H](N)C(=O)NCC(=O)O[C@H]1CC[C@@]2(C)C(=CC[C@@H]3[C@@H]2CC[C@]2(C)C(c4cccnc4)=CC[C@@H]32)C1`, the IC50 in data set [1] was 13.4 µM.
